{"source": "ChEMBL document CHEMBL1201862", "about": "“PubChem BioAssay data set” (2004)", "key": {"Orexin receptor type 2 [1]": {"molecular_target": "T1, Orexin receptor type 2 (Homo sapiens, UniProt O43614)", "T1 sequence (O43614 whole entry)": "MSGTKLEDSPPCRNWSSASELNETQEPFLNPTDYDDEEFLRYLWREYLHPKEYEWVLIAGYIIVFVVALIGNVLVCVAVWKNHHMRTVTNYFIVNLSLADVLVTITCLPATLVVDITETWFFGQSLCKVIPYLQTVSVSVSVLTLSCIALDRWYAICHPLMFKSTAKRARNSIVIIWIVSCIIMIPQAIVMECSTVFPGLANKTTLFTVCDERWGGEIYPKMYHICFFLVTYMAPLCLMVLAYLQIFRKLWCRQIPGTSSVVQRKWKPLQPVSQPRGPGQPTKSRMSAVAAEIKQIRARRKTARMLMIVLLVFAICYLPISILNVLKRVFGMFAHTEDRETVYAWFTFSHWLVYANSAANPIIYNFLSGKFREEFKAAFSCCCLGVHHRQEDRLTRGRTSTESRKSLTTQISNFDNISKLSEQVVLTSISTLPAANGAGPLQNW", "test": "Counterscreen assay for antagonists of the orexin 1 receptor (OX1R; HCRTR1): Homogeneous Time Resolved Fluorescence (HTRF)-based cell-based dose response assay for antagonists of the orexin 2 receptor (OX2R; HCRTR2), run by assay provider.", "type": "functional"}, "[2]": {"test": "(§1) Counterscreen for antagonists of the orexin 1 receptor (OX1R; HCRTR1): Fluorescence-based cell-based high throughput dose response assay to identify antagonists of the parental CHO cell line. [Related pubchem assays (depositor defined):AID434989, AID435008, AID463079, AID485270, AID492963, AID492964, AID492965, AID493232, AID504699, AID504701]", "type": "functional"}, "[3]": {"molecular_target": "T2, Orexin/Hypocretin receptor type 1 (Homo sapiens, UniProt O43613)", "T2 sequence (O43613 whole entry)": "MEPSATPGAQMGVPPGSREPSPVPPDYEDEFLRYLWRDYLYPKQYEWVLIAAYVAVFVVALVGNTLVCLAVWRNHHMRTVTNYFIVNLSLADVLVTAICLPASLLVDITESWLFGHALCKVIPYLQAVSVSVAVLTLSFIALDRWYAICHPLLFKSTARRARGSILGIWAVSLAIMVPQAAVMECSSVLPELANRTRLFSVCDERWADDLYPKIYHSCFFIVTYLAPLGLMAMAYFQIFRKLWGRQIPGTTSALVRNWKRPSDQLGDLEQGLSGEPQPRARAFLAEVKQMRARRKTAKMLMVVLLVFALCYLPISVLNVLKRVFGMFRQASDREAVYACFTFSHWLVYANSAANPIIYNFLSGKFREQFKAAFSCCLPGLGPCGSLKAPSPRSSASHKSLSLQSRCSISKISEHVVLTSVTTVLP", "test": "Homogeneous Time Resolved Fluorescence (HTRF)-based cell-based high throughput dose response assay for antagonists of the orexin 1 receptor (OX1R; HCRTR1). [Related pubchem assays (depositor defined):AID434989, AID435008, AID463079, AID485270, AID492963, AID492964, AID492965, AID493232, AID504717, AID504718]", "type": "functional"}, "CHO-K1": {"test_system": "CHO-K1", "test": "as §1, with “Homogeneous time resolved fluorescence (HTRF)-based” for “Fluorescence-based”, “cell-based” for “cell-based high throughput”, “CHO-K1” for “CHO”", "type": "functional", "conditions": "Cricetulus griseus"}, "[4]": {"molecular_target": "T2, Orexin/Hypocretin receptor type 1", "test": "Fluorescence-based cell-based high throughput dose response assay for antagonists of the orexin 1 receptor (OX1R; HCRTR1). [Related pubchem assays (depositor defined):AID434989, AID435008, AID463079, AID485270, AID492963, AID492964, AID492965, AID493232, AID504717, AID504718]", "type": "functional"}, "Orexin receptor type 2 [5]": {"molecular_target": "T1, Orexin receptor type 2", "test": "Counterscreen assay for antagonists of the orexin 1 receptor (OX1R; HCRTR1): Fluorescence-based cell-based dose response assay for antagonists of the orexin 2 receptor (OX2R; HCRTR2), run by assay provider.", "type": "functional"}, "[6]": {"molecular_target": "T3, High affinity choline transporter 1 (Homo sapiens, UniProt Q9GZV3)", "T3 sequence (Q9GZV3 whole entry)": "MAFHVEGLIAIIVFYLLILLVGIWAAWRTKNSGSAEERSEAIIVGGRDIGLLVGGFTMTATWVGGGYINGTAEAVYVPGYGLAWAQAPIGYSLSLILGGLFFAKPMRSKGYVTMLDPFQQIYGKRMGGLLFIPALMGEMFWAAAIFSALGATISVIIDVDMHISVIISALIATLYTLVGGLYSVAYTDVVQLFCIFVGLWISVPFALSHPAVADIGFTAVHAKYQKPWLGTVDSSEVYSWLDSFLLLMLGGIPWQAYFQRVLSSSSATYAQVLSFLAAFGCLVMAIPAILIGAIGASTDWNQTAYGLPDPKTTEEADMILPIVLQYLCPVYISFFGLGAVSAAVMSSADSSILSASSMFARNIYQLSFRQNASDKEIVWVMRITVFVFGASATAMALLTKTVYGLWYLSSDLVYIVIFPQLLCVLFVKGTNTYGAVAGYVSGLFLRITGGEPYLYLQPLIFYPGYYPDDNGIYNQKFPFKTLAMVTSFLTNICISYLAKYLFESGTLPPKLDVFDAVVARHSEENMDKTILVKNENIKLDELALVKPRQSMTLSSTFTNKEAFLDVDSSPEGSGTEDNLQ", "test": "CHT activators, dose response, cell-based, 10-point CRC, membrane potential dye (AID 602376)", "type": "functional"}, "Streptococcus": {"test_system": "Streptococcus", "test": "Group A Streptococcus viability loss, dose response, counter-screen for streptokinase expression inhibitor project, luminescence, BacTiterGlo (AID 1915)", "type": "functional, organism-based"}, "[7]": {"test": "Luminescence Cell-Based Dose Retest to Confirm Inhibitors of Cancer Stem Cells. [Related pubchem assays (depositor defined):AID2717, AID2721]", "type": "functional", "conditions": "Homo sapiens"}, "[8]": {"molecular_target": "Cyclin-dependent kinase 5/CDK5 activator 1 (Homo sapiens, UniProt Q00535)", "sequence (Q00535 whole entry)": "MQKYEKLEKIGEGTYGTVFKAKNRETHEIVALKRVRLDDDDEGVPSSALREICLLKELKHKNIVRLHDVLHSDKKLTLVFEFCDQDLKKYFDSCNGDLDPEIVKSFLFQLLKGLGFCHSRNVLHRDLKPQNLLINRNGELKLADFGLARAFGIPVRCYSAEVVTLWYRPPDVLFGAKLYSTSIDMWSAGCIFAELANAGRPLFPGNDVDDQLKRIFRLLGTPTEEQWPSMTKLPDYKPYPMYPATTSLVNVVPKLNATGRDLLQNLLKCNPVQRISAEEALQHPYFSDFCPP", "sequence (Q15078 whole entry, further chain)": "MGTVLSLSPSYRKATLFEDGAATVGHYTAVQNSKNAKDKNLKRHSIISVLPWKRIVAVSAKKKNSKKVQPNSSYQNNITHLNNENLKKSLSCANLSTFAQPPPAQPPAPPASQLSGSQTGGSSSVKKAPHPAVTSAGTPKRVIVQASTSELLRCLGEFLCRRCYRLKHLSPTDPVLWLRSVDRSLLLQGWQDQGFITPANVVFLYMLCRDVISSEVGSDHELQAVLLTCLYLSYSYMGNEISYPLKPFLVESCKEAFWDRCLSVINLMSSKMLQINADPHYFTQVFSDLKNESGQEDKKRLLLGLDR", "test": "CDK5-p25 kinase inhibitors, specificity check, dose response, selectivity assay for GSK-3 alpha inhibitor project, biochemical, microfluidic mobility shift, dry powder (AID 588430)"}, "Streptokinase A": {"molecular_target": "T4, Streptokinase A (Streptococcus pyogenes serotype M1, UniProt P10520)", "T4 sequence (P10520 whole entry)": "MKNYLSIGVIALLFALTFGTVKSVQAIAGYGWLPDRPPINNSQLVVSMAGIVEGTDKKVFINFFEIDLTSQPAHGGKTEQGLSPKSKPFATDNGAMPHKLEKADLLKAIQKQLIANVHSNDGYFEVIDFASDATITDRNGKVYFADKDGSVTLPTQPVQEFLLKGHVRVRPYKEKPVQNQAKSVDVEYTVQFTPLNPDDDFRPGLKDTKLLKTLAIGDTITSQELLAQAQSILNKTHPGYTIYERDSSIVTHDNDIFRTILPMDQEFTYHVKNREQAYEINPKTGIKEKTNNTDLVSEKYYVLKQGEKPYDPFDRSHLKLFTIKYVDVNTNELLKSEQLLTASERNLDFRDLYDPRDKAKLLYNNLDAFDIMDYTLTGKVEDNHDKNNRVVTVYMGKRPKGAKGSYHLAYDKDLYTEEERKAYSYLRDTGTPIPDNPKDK", "test": "S. pyogenes streptokinase expression inhibitors, potency, dose response, plasminogen activation absorbance, OD405 (AID 1914)", "type": "functional, Streptococcus pyogenes M1 GAS"}, "[9]": {"molecular_target": "Glycogen synthase kinase-3 alpha (Homo sapiens, UniProt P49840)", "sequence (P49840 whole entry)": "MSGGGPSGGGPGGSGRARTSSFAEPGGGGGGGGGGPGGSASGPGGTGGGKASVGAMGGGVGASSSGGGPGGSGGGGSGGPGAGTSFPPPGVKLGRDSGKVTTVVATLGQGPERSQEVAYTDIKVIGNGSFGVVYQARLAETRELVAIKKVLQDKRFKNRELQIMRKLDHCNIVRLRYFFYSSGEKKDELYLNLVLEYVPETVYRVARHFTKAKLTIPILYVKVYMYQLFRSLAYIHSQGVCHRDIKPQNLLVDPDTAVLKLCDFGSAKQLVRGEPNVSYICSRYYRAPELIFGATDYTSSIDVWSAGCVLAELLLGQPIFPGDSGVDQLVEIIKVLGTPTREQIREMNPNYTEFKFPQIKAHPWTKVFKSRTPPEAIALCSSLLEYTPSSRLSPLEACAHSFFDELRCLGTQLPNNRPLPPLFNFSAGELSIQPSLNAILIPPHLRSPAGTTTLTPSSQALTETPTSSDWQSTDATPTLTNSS", "test": "Inhibition of Human GSK-3 alpha Activity Measured in Biochemical System Using Microfluidics - 2063-06_Inhibitor_Dose_DryPowder_Activity_Set2. [Related pubchem assays (depositor defined):AID2709]"}, "[10]": {"test_system": "Streptococcus sp. 'group A'", "test": "growth inhibition of control SK(-) GAS strain, dose response, counter-screen for streptokinase expression inhibitor project, luminescence, kanamycin, BacTiterGlo, confirmation (AID 1900)", "type": "functional, organism-based"}, "[11]": {"molecular_target": "Glycogen synthase kinase-3 beta (Homo sapiens, UniProt P49841)", "sequence (P49841 whole entry)": "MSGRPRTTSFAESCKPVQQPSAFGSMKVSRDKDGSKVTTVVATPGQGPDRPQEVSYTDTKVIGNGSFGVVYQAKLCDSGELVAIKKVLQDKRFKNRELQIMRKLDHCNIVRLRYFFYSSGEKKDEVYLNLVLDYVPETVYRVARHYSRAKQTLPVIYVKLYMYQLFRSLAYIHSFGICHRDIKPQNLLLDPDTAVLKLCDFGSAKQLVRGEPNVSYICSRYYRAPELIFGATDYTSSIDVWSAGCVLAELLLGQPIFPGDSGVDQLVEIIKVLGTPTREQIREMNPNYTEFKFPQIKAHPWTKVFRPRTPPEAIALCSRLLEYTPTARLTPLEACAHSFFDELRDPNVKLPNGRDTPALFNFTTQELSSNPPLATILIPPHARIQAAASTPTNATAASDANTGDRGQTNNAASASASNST", "test": "Inhibition of Human GSK-3 beta Activity Measured in Biochemical System Using Microfluidics - 2063-05_Inhibitor_Dose_DryPowder_Activity_Set2. [Related pubchem assays (depositor defined):AID2709]"}, "Activin receptor type-1": {"molecular_target": "Activin receptor type-1 (Homo sapiens, UniProt Q04771)", "sequence (Q04771 whole entry)": "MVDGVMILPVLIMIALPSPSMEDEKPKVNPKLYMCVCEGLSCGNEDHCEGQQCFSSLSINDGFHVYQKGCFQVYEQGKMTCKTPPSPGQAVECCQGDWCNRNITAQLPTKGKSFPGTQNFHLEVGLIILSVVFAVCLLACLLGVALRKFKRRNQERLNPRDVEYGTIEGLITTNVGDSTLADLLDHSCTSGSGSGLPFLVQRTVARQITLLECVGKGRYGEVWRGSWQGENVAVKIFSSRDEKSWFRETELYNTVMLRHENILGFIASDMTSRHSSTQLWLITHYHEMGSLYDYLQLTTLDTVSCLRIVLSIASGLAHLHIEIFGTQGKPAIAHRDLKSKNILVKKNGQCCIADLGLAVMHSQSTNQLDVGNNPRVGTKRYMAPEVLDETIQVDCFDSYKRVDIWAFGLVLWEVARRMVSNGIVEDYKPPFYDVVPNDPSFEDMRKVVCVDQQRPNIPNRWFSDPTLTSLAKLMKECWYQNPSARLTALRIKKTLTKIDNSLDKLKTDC", "test": "Navigating the Kinome. Panel member name: ACVR1", "type": "functional"}, "[12]": {"molecular_target": "Dual specificity protein kinase CLK4 (Homo sapiens, UniProt Q9HAZ1)", "sequence (Q9HAZ1 whole entry)": "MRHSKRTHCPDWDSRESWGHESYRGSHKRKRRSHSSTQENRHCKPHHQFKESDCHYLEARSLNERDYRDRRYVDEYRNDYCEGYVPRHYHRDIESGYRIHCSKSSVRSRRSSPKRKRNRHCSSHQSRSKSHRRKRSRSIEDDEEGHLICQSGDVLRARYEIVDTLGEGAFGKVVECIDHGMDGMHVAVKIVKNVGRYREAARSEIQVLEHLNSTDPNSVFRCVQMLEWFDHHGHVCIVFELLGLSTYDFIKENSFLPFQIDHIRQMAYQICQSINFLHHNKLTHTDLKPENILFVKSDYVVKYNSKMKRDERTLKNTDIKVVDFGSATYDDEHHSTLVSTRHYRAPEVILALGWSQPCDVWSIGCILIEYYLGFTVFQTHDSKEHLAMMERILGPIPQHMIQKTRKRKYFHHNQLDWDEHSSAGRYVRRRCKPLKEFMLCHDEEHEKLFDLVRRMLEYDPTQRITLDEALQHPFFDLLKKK", "type": "functional"}}, "note": "Activity calls are given as the source filed them."}
{"smiles": "CCc1cc2c(SCC(=O)N(CC)c3c(N)n(Cc4ccccc4)c(=O)[nH]c3=O)ncnc2s1", "values": [{"measurement": "IC50", "setting": "Orexin receptor type 2 [1]", "value": "1.71 µM (active)"}, {"measurement": "IC50", "setting": "[2]", "value": "> 49.8 µM (inactive)"}, {"measurement": "IC50", "setting": "[3]", "value": "0.34 µM (active)"}, {"measurement": "IC50", "setting": "CHO-K1", "value": "> 66.2 µM (inactive)"}, {"measurement": "IC50", "setting": "[4]", "value": "6.12 µM (active)"}, {"measurement": "IC50", "setting": "Orexin receptor type 2 [5]", "value": "31.5 µM (inactive)"}]}
{"smiles": "c1ccc(Cn2c[n+](Cc3ccccc3)c3ccccc32)cc1", "values": [{"measurement": "EC50", "setting": "[6]", "value": "5.76 µM (active)"}]}
{"smiles": "Nc1nc(Nc2ccccc2)nc(NC2CCCCC2)c1[N+](=O)[O-]", "values": [{"measurement": "EC50", "setting": "Streptococcus", "value": "8.07 µM (active)"}, {"measurement": "AC50", "setting": "[7]", "value": "4.62 µM (active)"}, {"measurement": "AC50", "setting": "[8]", "value": "2.36 µM (active)"}, {"measurement": "EC50", "setting": "Streptokinase A", "value": "> 150 µM (not active)"}, {"measurement": "AC50", "setting": "[9]", "value": "2.6 µM (active)"}, {"measurement": "EC50", "setting": "[10]", "value": "6.85 µM (active)"}, {"measurement": "AC50", "setting": "[11]", "value": "1.04 µM (active)"}]}
{"smiles": "O=C(Nc1cccc(C(F)(F)F)n1)Nc1ccnc2cc(F)ccc12", "values": [{"measurement": "Ki", "setting": "Activin receptor type-1", "value": "1.26 µM (active)"}, {"measurement": "Ki", "setting": "[12]", "value": "2.51 µM (active)"}]}
